The values below come from patent US20170210751A1, “PRMT5 INHIBITORS AND USES THEREOF” (Epizyme, Inc., priority 2014, published 2017).

For the assay, the target named is T1, PRMT5/MEP50 (Homo sapiens, UniProt O14744).
T1 construct: Flag-PRMT5; made in house; host or cells: Spodoptera frugiperda (SF9) insect cells, baculovirus (pDEST8)
T1 sequence (O14744 with tags, fused parts or gaps): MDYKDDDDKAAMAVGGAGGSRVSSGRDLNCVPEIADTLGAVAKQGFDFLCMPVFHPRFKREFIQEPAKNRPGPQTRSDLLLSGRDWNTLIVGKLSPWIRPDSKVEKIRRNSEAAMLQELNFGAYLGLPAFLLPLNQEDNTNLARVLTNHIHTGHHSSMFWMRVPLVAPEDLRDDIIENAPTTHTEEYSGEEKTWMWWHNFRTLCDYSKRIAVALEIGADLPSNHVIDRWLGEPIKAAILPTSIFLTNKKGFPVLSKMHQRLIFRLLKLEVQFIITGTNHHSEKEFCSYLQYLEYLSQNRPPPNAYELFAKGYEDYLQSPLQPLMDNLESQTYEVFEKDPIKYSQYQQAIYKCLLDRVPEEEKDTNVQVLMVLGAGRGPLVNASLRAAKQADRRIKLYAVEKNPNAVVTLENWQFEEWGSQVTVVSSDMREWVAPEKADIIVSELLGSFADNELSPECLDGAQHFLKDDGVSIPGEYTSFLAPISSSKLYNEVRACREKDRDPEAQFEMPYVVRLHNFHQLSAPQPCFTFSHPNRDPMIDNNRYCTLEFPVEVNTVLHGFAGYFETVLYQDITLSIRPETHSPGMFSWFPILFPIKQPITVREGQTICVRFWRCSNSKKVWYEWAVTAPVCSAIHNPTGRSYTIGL
T1 sequence (Q9BQA1 with tags, fused parts or gaps partner limits assumed): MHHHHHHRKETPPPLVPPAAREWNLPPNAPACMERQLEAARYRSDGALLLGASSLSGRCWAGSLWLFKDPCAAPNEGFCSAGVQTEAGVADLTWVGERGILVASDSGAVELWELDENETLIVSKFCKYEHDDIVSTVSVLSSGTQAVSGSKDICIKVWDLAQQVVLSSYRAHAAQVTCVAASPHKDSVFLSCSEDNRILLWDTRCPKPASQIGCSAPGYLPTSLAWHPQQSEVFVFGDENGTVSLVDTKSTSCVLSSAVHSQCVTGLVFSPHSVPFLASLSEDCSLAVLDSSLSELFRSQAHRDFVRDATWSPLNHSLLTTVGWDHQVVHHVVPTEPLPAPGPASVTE
Kind of assay: PRMT5 Biochemical Assay (PRMT5/MEP50 enzyme assay on peptide substrate, 3H-SAM Flashplate). Conditions: PRMT5/MEP50 4 nM, 3H-SAM 75 nM, peptide 40 nM, 30 min preincubation at 25 degrees Celsius. From the text: S-adenosylmethionine (SAM), S-adenosylhomocysteine (SAH), bicine, KCl, Tween20, dimethylsulfoxide (DMSO), bovine skin gelatin (BSG), and Tris(2-carboxyethyl)phosphine hydrochloride solution (TCEP) were purchased from Sigma-Aldrich at the highest level of purity possible. ^3H-SAM was purchase from American Radiolabeled Chemicals with a specific activity of 80 Ci/mmol. 384-well streptavidin Flashplates were purchased from PerkinElmer.
Peptide representative of human histone H4 residues 1-15 was synthesized with a C-terminal linker-affinity tag motif and a C-terminal amide cap by 21st Century Biochemicals. The peptide was high high-performance liquid chromatography (HPLC) purified to greater than 95% purity and confirmed by liquid chromatography mass spectrometry (LC-MS). The sequence was Ac-[…][K-Biot]-amide (SEQ ID NO.:3).
Full-length human PRMT5 (NM_006109.3) transcript variant 1 clone was amplified from a fetal brain cDNA library, incorporating flanking 5′ sequence encoding a FLAG tag ([…]) (SEQ ID NO.:4) fused directly to Ala 2 of PRMT5. Full-length human MEP50 (NM_024102) clone was amplified from a human testis cDNA library incorporating a 5′ sequence encoding a 6-histidine tag (MHHHHHH) (SEQ ID NO.:5) fused directly to Arg 2 of MEP50. The amplified genes were sublconed into pENTR/D/TEV (Life Technologies) and subsequently transferred by Gateway™ attL×attR recombination to pDEST8 baculvirus expression vector (Life Technologies).
Recombinant baculovirus and Baculovirus-Infected Insect Cells (BIIC) were generated according to Bac-to-Bac kit instructions (Life Technologies) and Wasilko, 2006, respectively. Protein over-expression was accomplished by infecting exponentially growing Spodoptera frugiperda (SF9) cell culture at 1.2×10^6 cell/ml with a 5000 fold dilution of BIIC stock. Infections were carried out at 27° C. for 72 hours, harvested by centrifugation, and stored at −80° C. for purification.
Flag-PRMT5/6His-MeP50 was eluted with 300 mM Imidazole in the same buffer. The purity of recovered protein was 87%. Reference: Wasilko, D. J. and S. E. Lee: “TIPS: titerless infected-cells preservation and scale-up” Bioprocess J., 5 (2006), pp. 29-32.
General Procedure for PRMT5/MEP50 Enzyme Assays on Peptide Substrates.
The assays were all performed in a buffer consisting of 20 mM Bicine (pH=7.6), 1 mM TCEP, 0.005% BSG, and 0.002% Tween20, prepared on the day of use. Compounds in 100% DMSO (1 ul) were spotted into a polypropylene 384-well V-bottom plates (Greiner) using a Platemate Plus outfitted with a 384-channel head (Thermo Scientific). DMSO (1 ul) was added to Columns 11, 12, 23, 24, rows A-H for the maximum signal control and 1 ul of SAH, a known product and inhibitor of PRMT5/MEP50, was added to columns 11, 12, 23, 24, rows I-P for the minimum signal control. A cocktail (40 ul) containing the PRMT5/MEP50 enzyme and the peptide was added by Multidrop Combi (Thermo-Fisher). The compounds were allowed to incubate with PRMT5/MEP50 for 30 min at 25 degrees Celsius, then a cocktail (10 ul) containing ^3H-SAM was added to initiate the reaction (final volume=51 ul). The final concentrations of the components were as follows: PRMT5/MEP50 was 4 nM, ^3H-SAM was 75 nM, peptide was 40 nM, SAH in the minimum signal control wells was 100 uM, and the DMSO concentration was 1%. The assays were stopped by the addition of non-radioactive SAM (10 ul) to a final concentration of 600 uM, which dilutes the ^3H-SAM to a level where its incorporation into the peptide substrate is no longer detectable. 50 ul of the reaction in the 384-well polypropylene plate was then transferred to a 384-well Flashplate and the biotinylated peptides were allowed to bind to the streptavidin surface for at least 1 hour before being washed three times with 0.1% Tween20 in a Biotek ELx405 plate washer. […]
Turning to `CC(=O)N1CC(Nc2cc(C(=O)NC[C@H](O)CN3CCc4c(C)csc4C3)ncn2)C1` [Compound 1-26], the IC50 was in the range of 0.101 to 1 µM. As for `CC(=O)N1CC(Nc2cc(C(=O)NC[C@H](O)CN3CCc4cn(C)nc4C3)ncn2)C1` [Compound 3-48], the IC50 was more than 10 µM.

For `CC(=O)N1CC(Nc2cc(C(=O)NC[C@H](O)CN3CCc4scnc4C3)ncn2)C1` [Compound 1-25], the IC50 was more than 10 µM. As to `Cn1ncc2c1CCN(C[C@@H](O)COc1cccc(-c3ccc4ncn(C)c4c3)c1)C2` [Compound 3-4], the IC50 is more than 50 µM.

For `CC(=O)N1CC(Nc2cc(C(=O)NC[C@H](O)CN3CCc4sc(C)c(C)c4C3)ncn2)C1` [Compound 1-31], the IC50 is less than 0.1 µM. As for `OC(COc1ccccc1)CN1CCc2[nH]nc(-c3ccccc3)c2C1` (centres unmarked) [Compound 3-32], the IC50 was more than 50 µM. In the case of `O=C(NC[C@H](O)CN1CCc2scnc2C1)c1cc(NC2COC2)ncn1` [Compound 1-21] it was more than 10 µM; in that of `CC(=O)N1CCC(Nc2cc(C(=O)NC[C@H](O)CN3CCc4nc(C)sc4C3)ccn2)CC1` [Compound 1-9], 1 to 10 µM; in that of `CC(=O)N1CCC(Nc2cc(C(=O)NC[C@H](O)CN3CCc4cn(C)nc4C3)ccn2)CC1` [Compound 3-55], 0.101 to 1 µM. With `CC(=O)N1CCC(Nc2cc(C(=O)NC[C@H](O)CN3CCc4sc(C)c(C)c4C3)ccn2)CC1` [Compound 1-15, (S)-2-((1-acetylpiperidin-4-yl)amino)-N-(3-(2,3-dimethyl-6,7-dihydrothieno[3,2-c]pyridin-5(4H)-yl)-2-hydroxypropyl)isonicotinamide], the 50% inhibitory concentration (IC50) is less than 0.1 µM. In the case of `Cc1nc2c(s1)CCN(C[C@@H](O)CNC(=O)c1cc(NC3COC3)ncn1)C2` [Compound 1-22], the IC50 was more than 10 µM. For `CC(=O)N1CCC(Nc2cc(C(=O)NC[C@H](O)CN3CCc4[nH]ncc4C3)ncn2)CC1` [Compound 3-20], the IC50 was in the range of 1 to 10 µM. For the compound `Cn1ncc2c1CCN(C[C@H](O)COc1cccc(-c3ccc4ncn(C)c4c3)c1)C2` [Compound 3-5], the IC50 is more than 50 µM. On to `Cn1cc2c(n1)CN(C[C@@H](O)CNC(=O)c1cc(NC3COC3)ncn1)CC2` [Compound 3-42], for which the IC50 is more than 10 µM. For `OC(COc1cccc(CNC2CCCC2)c1)CN1CCc2ccncc2C1` (centres unmarked) [Compound 2-2, 1-(3-((cyclopentylamino)methyl)phenoxy)-3-(3,4-dihydro-2,7-naphthyridin-2(1H)-yl)propan-2-ol], the IC50 is more than 50 µM.

In the case of `Cn1cnc2c1CN(C[C@@H](O)COc1cccc(CNC3CCCC3)c1)CC2` [Compound 3-15], the IC50 was more than 50 µM. For `Cn1cnc2c1CCN(C[C@H](O)COc1cccc(CNC3CCCC3)c1)C2` [Compound 3-13], the IC50 was more than 50 µM.

With `Cc1sc2c(c1C)CN(C[C@@H](O)CNC(=O)c1cc(NC3COC3)ncn1)CC2` [Compound 1-24], the IC50 is less than 0.1 µM. Turning to `CC(=O)N1CCC(Nc2cc(C(=O)NC[C@H](O)CN3CCc4sc(C)c(C)c4C3)ncn2)CC1` [Compound 1-39], the IC50 is less than 0.1 µM. For `OC(COc1cccc(CNC2CCCC2)c1)CN1CCc2[nH]cnc2C1` (centres unmarked) [Compound 3-7], the IC50 was more than 50 µM. In the case of `Cn1cc2c(n1)CCN(CC(O)COc1cccc(CNC3CCCC3)c1)C2` (centres unmarked) [Compound 3-2], the IC50 was more than 50 µM. For `CC(=O)N1CC(Nc2cc(C(=O)NC[C@H](O)CN3CCc4cnn(C)c4C3)ncn2)C1` [Compound 3-49], the IC50 was in the range of 1 to 10 µM. As for `Cn1cnc2c1CCN(C[C@@H](O)COc1cccc(CNC3CCCC3)c1)C2` [Compound 3-3], the figure is more than 50 µM; as for `Cn1cnc2ccc(-c3cccc(OCC(O)CN4CCc5[nH]nc(-c6ccccc6)c5C4)c3)cc21` (centres unmarked) [Compound 3-6, 1-(3-(1-methyl-1H-benzo[d]imidazol-6-yl)phenoxy)-3-(3-phenyl-6,7-dihydro-1H-pyrazolo[4,3-c]pyridin-5(4H)-yl)propan-2-ol], 10 to 50 µM; as for `Cn1ncc2c1CN(C[C@@H](O)CNC(=O)c1cc(NC3COC3)ncn1)CC2` [Compound 3-43], 1 to 10 µM. As for `Cn1cc2c(n1)CCN(C[C@H](O)COc1cccc(-c3ccc4ncn(C)c4c3)c1)C2` [Compound 3-18], the IC50 was more than 50 µM. As for `OC(COc1cccc(CNC2CCCC2)c1)CN1CCc2cnccc2C1` (centres unmarked) [Compound 2-3], the IC50 is more than 50 µM. Turning to `CC(=O)N1CCC(Nc2cc(C(=O)NC[C@H](O)CN3CCc4cnn(C)c4C3)ccn2)CC1` [Compound 3-37, (S)-2-((1-acetylpiperidin-4-yl)amino)-N-(2-hydroxy-3-(1-methyl-4,5-dihydro-1H-pyrazolo[3,4-c]pyridin-6(7H)-yl)propyl)isonicotinamide], the IC50 was in the range of 0.101 to 1 µM. `Cn1cnc2c1CN(C[C@H](O)COc1cccc(CNC3CCCC3)c1)CC2` [Compound 3-16]: the concentration for half-maximal inhibition (IC50) was more than 50 µM. With `Cn1cnc2ccc(-c3cccc(OCC(O)CN4CCc5ncccc5C4)c3)cc21` (centres unmarked) [Compound 2-4, 1-(7,8-dihydro-1,6-naphthyridin-6(5H)-yl)-3-(3-(1-methyl-1H-benzo[d]imidazol-6-yl)phenoxy)propan-2-ol], the IC50 is 10 to 50 µM. As to `CC(=O)N1CCC(Nc2cc(C(=O)NC[C@H](O)CN3CCc4cnn(C)c4C3)ncn2)CC1` [Compound 3-60], the IC50 fell in the range of 0.101 to 1 µM.

On to `Cn1ncc2c1CCN(CC(O)COc1cccc(CNC3CCCC3)c1)C2` (centres unmarked) [Compound 3-8], for which the IC50 is more than 50 µM. For `CC(=O)N1CCC(Nc2cc(C(=O)NC[C@H](O)CN3CCc4cn(C)nc4C3)ncn2)CC1` [Compound 3-59], the IC50 is more than 10 µM. As for `Cn1cc2c(n1)CCN(C[C@@H](O)COc1cccc(-c3ccc4ncn(C)c4c3)c1)C2` [Compound 3-1], the half-maximal inhibitory concentration (IC50) was more than 50 µM. For `CC(=O)N1CCC(Nc2cc(C(=O)NC[C@H](O)CN3CCc4c(C)csc4C3)ncn2)CC1` [Compound 1-10, (S)-6-((1-acetylpiperidin-4-yl)amino)-N-(2-hydroxy-3-(3-methyl-4,5-dihydrothieno[2,3-c]pyridin-6(7H)-yl)propyl)pyrimidine-4-carboxamide], the IC50 is less than 0.1 µM.

As a reminder, the IC50 is the point on the concentration scale where inhibition reaches its midpoint.
